From patent US4325970A, “15-Acetyl-prostaglandins” (Hoffmann-La Roche Inc., priority 1980, dated 1982)
Read-outs that look alike come from different tables or passages of the source.

What was measured:
[1] = system: gastric microbleeding induced by aspirin; assay type: in vivo, rat; conditions: for blood lost after Compound A in combination with aspirin: intragastric, one hour
From the text: To study the effects of Compound A on gastric microbleeding induced by aspirin, a technique was developed based on that used by Menasse-Gdynia and Krupp, Toxicol, Appl. Pharmacol. 29, 389-396. The technique involves the microsurgical preparation of rats so as to isolate the stomach in an accessible, perfused system and the utilization of chromium-51-labelled red blood cells (^51 Cr-RBC) as a convenient handle for the assessment of bleeding from drug-induced gastric microlesions.
Rats were microsurgically implanted with a cannula in the vena cava (for the injection of ^51 Cr-RBC), a cannula in the forestomach (for constant infusion of tap water) and a cannula in the duodenum at the pyloric sphincter (for collection ot total gastric effluent). After a 30 min wash with tap water infused at 5.5 m/hr, each animal was administered either aspirin (100 mg/kg) or aspirin in combination with Compound A. Ease dose was administered intragastrically in 1 ml 40% polyethylene glycol (having molecular weight of 400) vehicle and allowed to remain in the stomach for 15 min. Simultaneously 0.9 ml ^51 Cr-RBC (3×10^6) was administered through the vena cava. Gastric effluent was collected every 5 min for a total of […]. Radioactivity was determined in a gamma counter. The results are expressed as microliters of whole blood lost during the 60 min experiments, based on the following formula: [formula]

acid secretion = acid secretion in three conscious dog models (Heidenhain pouches, Pavlov pouches or gastric fistulae); assay type: in vivo
From the text: These models consisted of concious dogs prepared with Heidenhain pouches, Pavlov pouches or gastric fistulae.

[2] = system: gastric secretion stimulated by histamine; assay: Heidenhain pouch dog test, histamine-stimulated gastric secretion; assay type: in vivo, dog (mongrel)
Method: Compound A was next tested at a dose level which would cause a definite and reproducible pharmacological effect.
The Heindenhain pouch test involved collecting gastric juice from the denervated (Heidenhain) gastric pouches of mongrel dogs. This collection was accomplished by gravity drainage, using a specially manufactured titanium cannula. Gastric secretion was stimulated by intravenous infusion of a saline solution of histamine hydrochloride, 20 μg/kg/hr, injected at a rate of 1 ml/min. This submaximal stimulation elicited acid secretion approximately 30% of maximal, without the tachycardia commonly observed with higher doses of histamine. Samples of gastric juice were collected at 15-min intervals. Compound A was administered orally via a 1/4 oz. hard gelatin capsule. The animals were dosed 90 min after the start of histamine infusion and the test continued for 9 hours post-drug administration. The dogs were concious and stood quietly in Pavlov slings during the experiments. Sample volume was measured, and pH, acid concentration (mEq/L), acid output (mEq/15-min periods), as well as pepsin concentration and output were determined. Vital signs were monitored throughout the test and kennel observations continued for 24 hr.
The indexes chosen to assess drug efficacy were acid concentration and acid output. These parameters were expressed as a percentage of the average of the three 15-min values prior to dosage. […] […] Values of pH increased from a control average of 1.0 to a maximum of 2.0 six hours post drug. Analysis of control data for this group of Heindenhain-pouch dogs indicated no significant decrease in gastric juice volumes from control levels during these extended studies. In these control animals, pH values averaged 0.9 throughout the entire experiment. Therefore, no significant decreases in acid concentration or output would be expected in the control results.

[3] = Compound A 10 μg/kg + aspirin 100 mg/kg

SMILES: CCCCC(C)(C)[C@@H](/C=C/C1[C@H](C)CC(=O)[C@@H]1C/C=C\CCCC(=O)O)OC(C)=O (stereo in doubt) [Compound A, (8R,11R,12S,15R,5Z,13E)-15-acetyloxy-11,16,16-trimethyl-9-oxoprosta-5,13-dien-1-oic acid]
- blood lost after Compound A in combination with aspirin ([1]; Compound A 1.25 μg/kg + aspirin 100 mg/kg): 178 µL
- blood lost after Compound A in combination with aspirin ([1]; Compound A 2.5 μg/kg + aspirin 100 mg/kg): 56 µL
- prevention of aspirin-induced microbleeding [1, 3]: complete prevention
- blood lost after Compound A in combination with aspirin [1, 3]: 0 µL
- effect on aspirin-induced bleeding ([1]; Compound A 1.25, 2.5 or 10 μg/kg + aspirin 100 mg/kg): reduced or prevented bleeding in a dose-dependent manner
- inhibition of acid secretion (acid secretion; 50 to 100 μg/kg I.V.): at best, intermittent, slight to moderate inhibition of acid secretion of short duration
- inhibition of acid secretion (acid secretion; oral and intrapouch dose of 10 to 50 μg/kg): at best, intermittent, slight to moderate inhibition of acid secretion of short duration
- activity ([2]; 100 μg/kg p.o.): potential for significant activity
- dogs with 50% or better acid reduction for more than two hours ([2]; 100 μg/kg p.o., six dogs): Three of the six dogs
- acid reduction ([2]; 100 μg/kg p.o., in three of the six dogs, for more than two hours post dosage): ≥ 50%
- duration of 50% or better acid reduction ([2]; 100 μg/kg p.o., three of the six dogs): more than two hours
- activity compared with 500 μg/kg level ([2]; 250 μg/kg oral): almost as good as that found at the 500 μ/kg level
- antisecretory activity ([2]; 500 μg/kg oral): marked antisecretory activity of long duration
- duration of >60% inhibition of acid output ([2]; 500 μg/kg oral): > 9 h
- start of >60% inhibition of acid output after administration ([2]; 500 μg/kg oral): 45 min
- inhibition of acid output ([2]; 500 μg/kg oral, beginning 45 minutes after administration, longer than 9 hours, mean=0.38 mEq/15 minutes): > 60%
- reduction of the acid concentration from control values ([2]; 500 μg/kg oral, constant between 4 and 5 3/4 hours post drug, control mean=136 mg/L as printed): ≥ 50%
- maximum pH of gastric juice ([2]; 500 μg/kg oral, six hours post drug, from a control average of 1.0): 2.0
